The source of these data is US11628169B2, “Therapeutic drug for motor complications in Parkinson's disease” (Sumitomo Pharma Co., Ltd., priority 2020, dated 2023).

This assay deals with PD-LID rat model. Description: Dyskinesia-like symptom (AIMs) score in PD-LID rat model. The following applies: continuous subcutaneous infusion 60 mg/mL (mean 0.78 mg/kg/hour); day 0 of implanting the pump; vs solvent group. Format: in vivo. As for the experimental part: To make a PD-LID rat model, a mixture of levodopa methyl ester hydrochloride (6 mg/kg; Sigma-Aldrich) dissolved in saline and benserazide hydrochloride (15 mg/kg; Sigma-Aldrich) (hereinafter, also referred to as “levodopa containing solution”) was intraperitoneally administered once daily to 6-OHDA-lesioned rats. The levodopa containing solution was repeatedly administered for 3 weeks or longer to observe and evaluate the behavior. The behavior was observed and evaluated in a transparent acrylic cage for 1 minute every 20 minutes after 20 minutes from the intraperitoneal administration of the levodopa containing solution, up until after 3 hours from administration. […] The sum of the scores for Limb AIMs, Axial AIMs, and Orolingual AIMs in 3 hours was used as the total dyskinesia-like symptom (AIMs) score. Individuals with a total AIMs score of less than 10 were excluded from the test as not manifesting a dyskinesia-like symptom. The behavior was observed and evaluated before the drug evaluation date. The rats were assigned to each dosing group by using the 3 hour total dyskinesia-like symptom (AIMs) score, Locomotive behavior score, and rat body weight as indicators, which were used for evaluation of drugs. […]
After 4 hours from application, a levodopa containing solution was intraperitoneally administered to observe and evaluate the behavior. Individuals with 50% or more of the tape agent coming off during the test were excluded from analysis. […]
As in Example 2, a levodopa containing solution was repeated administered to 6-0HDA-lesioned rats for 3 weeks or longer to observe and evaluate the behavior. The behavior was observed and evaluated before the drug evaluation date. The rats were assigned to each dosing group by using the 3 hour dyskinesia-like symptom (AIMs) score, Locomotive behavior score, and rat body weight as indicators, which were used for evaluation of drugs. However, individuals with a total AIMs score of less than 10 were excluded from the test as lacking manifestation of a dyskinesia-like symptom. Individuals with a body weight deviating 10% or more from the mean body weight were also excluded from the test to minimize variation in the dosage for each individual. […]
After 4 hours, a levodopa containing solution was administered to observe and evaluate the behavior. […]
The prepared solution was used after injection into an ALZET® Osmotic Pump MODEL 2ML2 (4.53 μL/hour; DURECT) for releasing a drug solution at a stable rate for 2 weeks. […]
The behavior was observed and evaluated using the same method as Example 2. […] After 5 minutes, a levodopa containing solution was intraperitoneally administered, and the behavior was observed and evaluated. The results in the drawings are indicated in terms of mean value […] standard error. The test results were statistically analyzed by comparison with the solvent administration group by Steel test using the total dyskinesia-like symptom (AIMs) score in 3 hours and total dyskinesia-like symptom score in 100 to 180 minutes as parameters. * indicates p<0.05, meaning that there is a significant difference.
The behavior was observed and evaluated using the same method in Example 2. […] The test results were statistically analyzed by comparison with the solvent administration group by Steel test by using the total dyskinesia-like symptom (AIMs) score in 3 hours and total dyskinesia-like symptom score in 100 to 180 minutes as parameters.

With tandospirone citrate, the “dyskinesia-like symptoms (total AIMs score in 3 hours)” value is “Significant improvement in dyskinesia-like symptoms”.
